Species on record: Rattus norvegicus
Assay: Open TG-GATES - Regimen: Daily Repeat
Format: toxicity, organism-based, Sprague-Dawley
Parameters: regimen Daily Repeat, gender Male, age 6 weeks
Conditions: in vivo, po, route gavage; for Bas / Eos / Fbg / Ht / Lym / MCH / MCHC / MCV / Mono / Neu / PT / Plat / RBC / Ret / WBC / APTT: tissue Blood; for KIDNEY_L / KIDNEY_R / KIDNEY_TOTAL: tissue Kidney; for ALP / ALT / AST / CRE / Ca / Cl / DBIL / GLC / IP / K / LDH / RALB / TBIL / TC / TG / TP / gamma-GTP: tissue Plasma
[1] = 0 mg/kg, 72 h, dose level Control, time 3 day
[2] = 0 mg/kg, […], dose level Control, time 7 day
[3] = 0 mg/kg, […], dose level Control, time 14 day
[4] = 0 mg/kg, […], dose level Control, time 28 day
[5] = 10 mg/kg, 72 h, dose level Low, time 3 day
[6] = 10 mg/kg, […], dose level Low, time 7 day
[7] = 10 mg/kg, […], dose level Low, time 14 day
[8] = 10 mg/kg, […], dose level Low, time 28 day

Cn1c(=O)c2c(ncn2C)n(C)c1=O [CAFFEINE]
TERMINAL_BW [1]: 229.3 g
Bas [1]: 0%
Eos [1]: 0.6%
Fbg [1]: 311 mg/dL
Ht [1]: 39.9%
Lym [1]: 81.2%
MCH [1]: 21.1 pg
MCHC [1]: 33.1%
MCV [1]: 63.7 fL
Mono [1]: 2%
Neu [1]: 15.6%
PT [1]: 15.7 s
Plat [1]: 113.5 x10_4/uL
RBC [1]: 627 x10_4/ul
Ret [1]: 6.4%
WBC [1]: 79.7 x10_2/uL
KIDNEY_L [1]: 1 g
KIDNEY_R [1]: 1 g
KIDNEY_TOTAL [1]: 2 g
ALP [1]: 1435.4 IU/L
ALT [1]: 51.2 IU/L
AST [1]: 77 IU/L
CRE [1]: 0.2 mg/dL
Ca [1]: 10.9 mg/dL
Cl [1]: 108.2 meq/L
DBIL [1]: 0 mg/dL
GLC [1]: 187.2 mg/dL
IP [1]: 7.9 mg/dL
K [1]: 4.1 meq/L
LDH [1]: 159 IU/L
RALB [1]: 3 g/dL
TBIL [1]: 0.004 mg/dL
TC [1]: 69.2 mg/dL
TG [1]: 83.4 mg/dL
TP [1]: 5.6 g/dL
gamma-GTP [1]: 1.4 IU/L
TERMINAL_BW [2]: 259.6 g
TERMINAL_BW [3]: 312 g
TERMINAL_BW [4]: 388.1 g
APTT [2]: 22.5 s
Bas [2]: 0%
Eos [2]: 0.8%
Fbg [2]: 342.6 mg/dL
Ht [2]: 40.7%
Lym [2]: 79%
MCH [2]: 21.2 pg
MCHC [2]: 33.6%
MCV [2]: 63.2 fL
Mono [2]: 1.8%
Neu [2]: 17.4%
PT [2]: 15.4 s
Plat [2]: 116.2 x10_4/uL
RBC [2]: 644.8 x10_4/ul
Ret [2]: 6%
WBC [2]: 120.4 x10_2/uL
APTT [3]: 22.6 s
Bas [3]: 0%
Eos [3]: 1%
Fbg [3]: 311.4 mg/dL
Ht [3]: 41.1%
Lym [3]: 84.2%
MCHC [3]: 34.2%
MCV [3]: 59.8 fL
Mono [3]: 2.4%
Neu [3]: 11.4%
PT [3]: 15.5 s
Plat [3]: 117.4 x10_4/uL
RBC [3]: 688 x10_4/ul
Ret [3]: 4.3%
WBC [3]: 117.6 x10_2/uL
Bas [4]: 0%
Eos [4]: 1.2%
Fbg [4]: 317 mg/dL
Ht [4]: 43.6%
Lym [4]: 81%
MCH [4]: 19.4 pg
MCHC [4]: 34.6%
MCV [4]: 56.1 fL
Mono [4]: 1.6%
PT [4]: 15.7 s
Plat [4]: 102.1 x10_4/uL
RBC [4]: 778.2 x10_4/ul
Ret [4]: 2.6%
WBC [4]: 103.3 x10_2/uL
KIDNEY_L [2]: 1.1 g
KIDNEY_R [2]: 1.1 g
KIDNEY_TOTAL [2]: 2.3 g
KIDNEY_L [3]: 1.2 g
KIDNEY_R [3]: 1.2 g
KIDNEY_TOTAL [3]: 2.4 g
KIDNEY_L [4]: 1.4 g
KIDNEY_R [4]: 1.5 g
KIDNEY_TOTAL [4]: 2.9 g
ALP [2]: 1993.2 IU/L
ALT [2]: 46 IU/L
AST [2]: 70.6 IU/L
CRE [2]: 0.1 mg/dL
Ca [2]: 10.5 mg/dL
Cl [2]: 106 meq/L
DBIL [2]: 0 mg/dL
GLC [2]: 197.8 mg/dL
IP [2]: 7.7 mg/dL
K [2]: 4.7 meq/L
LDH [2]: 185.6 IU/L
RALB [2]: 3 g/dL
TBIL [2]: 0 mg/dL
TC [2]: 76.6 mg/dL
TG [2]: 118.6 mg/dL
TP [2]: 5.5 g/dL
gamma-GTP [2]: 1.8 IU/L
ALP [3]: 1572.4 IU/L
ALT [3]: 40.8 IU/L
AST [3]: 68.4 IU/L
CRE [3]: 0.2 mg/dL
Ca [3]: 10.5 mg/dL
Cl [3]: 104.6 meq/L
DBIL [3]: 0 mg/dL
GLC [3]: 216 mg/dL
IP [3]: 7.5 mg/dL
K [3]: 4.5 meq/L
LDH [3]: 181 IU/L
RALB [3]: 3 g/dL
TBIL [3]: 0 mg/dL
TG [3]: 150.2 mg/dL
TP [3]: 5.8 g/dL
gamma-GTP [3]: 2.4 IU/L
ALP [4]: 1038 IU/L
ALT [4]: 43.6 IU/L
AST [4]: 66.6 IU/L
CRE [4]: 0.2 mg/dL
Ca [4]: 10.4 mg/dL
Cl [4]: 105 meq/L
DBIL [4]: 0 mg/dL
GLC [4]: 197.4 mg/dL
IP [4]: 6.6 mg/dL
K [4]: 4.1 meq/L
LDH [4]: 146 IU/L
RALB [4]: 3.1 g/dL
TBIL [4]: 0.004 mg/dL
TC [4]: 71 mg/dL
TG [4]: 138.8 mg/dL
TP [4]: 6.1 g/dL
gamma-GTP [4]: 2.2 IU/L
TERMINAL_BW [5]: 226.8 g
APTT [5]: 21.4 s
Bas [5]: 0%
Eos [5]: 1%
Fbg [5]: 307.2 mg/dL
Ht [5]: 38.9%
Lym [5]: 80.2%
MCH [5]: 20.9 pg
MCHC [5]: 33.2%
MCV [5]: 62.9 fL
Mono [5]: 1.8%
Neu [5]: 16.4%
PT [5]: 15.5 s
Plat [5]: 118.8 x10_4/uL
RBC [5]: 618.6 x10_4/ul
Ret [5]: 5.7%
WBC [5]: 73.5 x10_2/uL
KIDNEY_L [5]: 1 g
KIDNEY_R [5]: 1 g
KIDNEY_TOTAL [5]: 2 g
ALP [5]: 1442.2 IU/L
ALT [5]: 43.8 IU/L
AST [5]: 70.8 IU/L
CRE [5]: 0.2 mg/dL
Ca [5]: 10.8 mg/dL
Cl [5]: 107.6 meq/L
DBIL [5]: 0 mg/dL
GLC [5]: 183.2 mg/dL
IP [5]: 7.5 mg/dL
K [5]: 4.2 meq/L
LDH [5]: 154.6 IU/L
RALB [5]: 3 g/dL
TBIL [5]: 0.004 mg/dL
TC [5]: 75.8 mg/dL
TG [5]: 87.8 mg/dL
TP [5]: 5.6 g/dL
gamma-GTP [5]: 1.2 IU/L
TERMINAL_BW [6]: 259.9 g
TERMINAL_BW [7]: 300.9 g
TERMINAL_BW [8]: 396.8 g
APTT [6]: 22.8 s
Bas [6]: 0%
Eos [6]: 1%
Fbg [6]: 316 mg/dL
Ht [6]: 40.6%
Lym [6]: 79%
MCH [6]: 20.9 pg
MCHC [6]: 33.3%
MCV [6]: 62.7 fL
Mono [6]: 2%
Neu [6]: 16.8%
PT [6]: 15.3 s
Plat [6]: 112.2 x10_4/uL
RBC [6]: 648.4 x10_4/ul
Ret [6]: 6.1%
WBC [6]: 106.3 x10_2/uL
APTT [7]: 23.2 s
Bas [7]: 0%
Eos [7]: 0.8%
Fbg [7]: 306.2 mg/dL
Ht [7]: 41.1%
Lym [7]: 81.2%
MCH [7]: 20.1 pg
MCHC [7]: 34%
MCV [7]: 59.2 fL
Mono [7]: 1.4%
Neu [7]: 15.4%
PT [7]: 15.1 s
Plat [7]: 112.6 x10_4/uL
RBC [7]: 693.6 x10_4/ul
Ret [7]: 4.5%
WBC [7]: 105.4 x10_2/uL
APTT [8]: 25.8 s
Bas [8]: 0%
Eos [8]: 0.6%
Fbg [8]: 309.2 mg/dL
Ht [8]: 43.1%
Lym [8]: 84%
MCHC [8]: 34.5%
MCV [8]: 54.7 fL
Mono [8]: 1.6%
Plat [8]: 99.3 x10_4/uL
RBC [8]: 788.8 x10_4/ul
Ret [8]: 2.5%
WBC [8]: 105.2 x10_2/uL
KIDNEY_L [6]: 1.1 g
KIDNEY_R [6]: 1.1 g
KIDNEY_TOTAL [6]: 2.2 g
KIDNEY_L [7]: 1.2 g
KIDNEY_R [7]: 1.2 g
KIDNEY_TOTAL [7]: 2.5 g
KIDNEY_L [8]: 1.5 g
KIDNEY_R [8]: 1.5 g
KIDNEY_TOTAL [8]: 3 g
ALP [6]: 1552.6 IU/L
ALT [6]: 47.6 IU/L
AST [6]: 75.2 IU/L
CRE [6]: 0.2 mg/dL
Ca [6]: 10.5 mg/dL
Cl [6]: 106.4 meq/L
DBIL [6]: 0 mg/dL
GLC [6]: 192.8 mg/dL
IP [6]: 7.8 mg/dL
K [6]: 4.4 meq/L
LDH [6]: 179.4 IU/L
RALB [6]: 3 g/dL
TBIL [6]: 0.002 mg/dL
TC [6]: 73.4 mg/dL
TG [6]: 102.4 mg/dL
TP [6]: 5.5 g/dL
gamma-GTP [6]: 2.4 IU/L
ALP [7]: 1475.8 IU/L
AST [7]: 71.8 IU/L
CRE [7]: 0.2 mg/dL
Ca [7]: 10.6 mg/dL
Cl [7]: 105.8 meq/L
DBIL [7]: 0 mg/dL
GLC [7]: 194 mg/dL
IP [7]: 6.8 mg/dL
K [7]: 4.2 meq/L
LDH [7]: 160.2 IU/L
RALB [7]: 3 g/dL
TBIL [7]: 0.004 mg/dL
TC [7]: 68.4 mg/dL
TG [7]: 146.6 mg/dL
TP [7]: 5.8 g/dL
gamma-GTP [7]: 2.2 IU/L
ALP [8]: 1054 IU/L
ALT [8]: 43 IU/L
AST [8]: 66.2 IU/L
CRE [8]: 0.2 mg/dL
Ca [8]: 10.4 mg/dL
Cl [8]: 105.8 meq/L
DBIL [8]: 0 mg/dL
GLC [8]: 204.4 mg/dL
IP [8]: 6.7 mg/dL
K [8]: 4 meq/L
LDH [8]: 153 IU/L
RALB [8]: 3.2 g/dL
TBIL [8]: 0.004 mg/dL
TC [8]: 73.6 mg/dL
TG [8]: 147.6 mg/dL

Source: ChEMBL document CHEMBL3885861, “Open TG-GATES”
